The results in this text go back to article PMC9239059, “Structure-Guided Synthesis of FK506 and FK520 Analogs with Increased Selectivity Exhibit In Vivo Therapeutic Efficacy against Cryptococcus” (mBio, 2022).

Converted amounts (≈) assume the structure as drawn.

The target of experiment [1] is T1, FKBP12 (Aspergillus fumigatus, UniProt Q4WLV6).
T1 construct: gene fpr1A; biotinylated (Avi-tagged) FKBP12; with CnA-CnB-calmodulin
The experiment in a line: BLI, compound-mediated ternary complex formation, […] compound. It counts as binding. On the technique in general: In BLI a coated tip is dipped into the sample, and binding shifts an interference pattern.

The subject of the next experiment is Scedosporium apiospermum. The experiment is described as follows: microbe, parasite or virus in culture. The conditions noted are these: Scedosporium apiospermum; MIC/MEC. More on the design: species or system Aspergillus fumigatus and other molds; modified CLSI M38-A2 broth microdilution in RPMI 1640, mold growth inhibition (MIC/MEC). How it is done:
(§1) In vitro antifungal activities of FK506, FK520, and analogs were assessed in RPMI 1640 (Sigma-Aldrich) for all strains tested. MICs/minimum effective concentrations (MECs) for each drug were measured using modified Clinical and Laboratory Standards Institute (CLSI) M38-A2 and M27-A3 standard in vitro antifungal susceptibility protocols. Broth microdilution assays for MIC/MEC assessment were performed as described previously ([33]). All antifungal assays with C. neoformans were performed at 37°C. Antifungal susceptibility testing for C. albicans was performed in the presence of a uniform 1 μg/mL concentration of fluconazole to sensitize the organism to calcineurin inhibition. MICs/minimum effective concentrations (MECs) were determined for each of the novel analogs against the three major human fungal pathogens, A. fumigatus, C. neoformans, and C. albicans. […] Thus, analogs of FK506 and FK520 can tolerate up to 100-fold reduction in antifungal activity and still be considered for in vivo testing. For C. neoformans, MICs were the most uniform and ranged from 0.2 to 2 μg/mL, which is between 4- and 40-fold reduced for antifungal activity. C. albicans MICs ranged from 0.2 to 6.25 μg/mL, which is between 10- and 312.5-fold reduced for activity. Despite being one of the most difficult to treat fungal infections, all six analogs were active against A. fumigatus with MECs ranging from 1 to 2 μg/mL or a 62.5- to 125-fold reduction in activity. Two FK520 analogs, JH-FK-05 and JH-FK-07, maintained high levels of broad-spectrum antifungal activity across the three species, and JH-FK-07 had the lowest MICs for both C. neoformans and C. albicans. To assess the antifungal activity against other human fungal pathogens, we selected JH-FK-05 to test against a panel of pathogenic molds and drug-resistant A. fumigatus strains (Table S3). JH-FK-05 registered MECs as low as 1 μg/mL for some of these highly recalcitrant species, such as Mucor circinelloides, Rhizopus oryzae, and pan azole-resistant A. fumigatus (strain F14946).

The next experiment relates to Scedosporium prolificans. The experiment in a line: microbe, parasite or virus in culture. More on the design: species or system Aspergillus fumigatus and other molds; modified CLSI M38-A2 broth microdilution in RPMI 1640, mold growth inhibition (MIC/MEC). The conditions noted are these: Lomentospora prolificans; MIC/MEC. The method, then: as §1
For a further experiment, the system named is Aspergillus terreus. The experiment in a line: microbe, parasite or virus in culture. More on the design: species or system Aspergillus fumigatus and other molds; modified CLSI M38-A2 broth microdilution in RPMI 1640, mold growth inhibition (MIC/MEC). The conditions noted are these: Aspergillus terreus; MIC/MEC. The method, then:
as §1

Another experiment concerns Paecilomyces variotti. The experiment is described as follows: microbe, parasite or virus in culture. Details: species or system Aspergillus fumigatus and other molds; modified CLSI M38-A2 broth microdilution in RPMI 1640, mold growth inhibition (MIC/MEC). The conditions noted are these: Paecilomyces; MIC/MEC. The method, then:
as §1

The next experiment concerns Mucor circinelloides. The experiment is described as follows: microbe, parasite or virus in culture. Details: species or system Aspergillus fumigatus and other molds; modified CLSI M38-A2 broth microdilution in RPMI 1640, mold growth inhibition (MIC/MEC). The conditions noted are these: Mucor circinelloides; MIC/MEC. The method, then: as §1
Experiment [2] deals with T2, Aspergillus fumigatus F14946.
T2 construct: F14946
The experiment is described as follows: microbe, parasite or virus in culture. More on the design: species or system Aspergillus fumigatus and other molds; modified CLSI M38-A2 broth microdilution in RPMI 1640, mold growth inhibition (MIC/MEC). The conditions noted are these: F14946, MIC/MEC, azole-resistant strain. How it is done:
as §1

The test system of experiment [3] is T3, Aspergillus fumigatus F12776.
T3 construct: F12776
The experiment in a line: microbe, parasite or virus in culture. The conditions noted are these: F12776, MIC/MEC, azole-resistant strain. Details: species or system Aspergillus fumigatus and other molds; modified CLSI M38-A2 broth microdilution in RPMI 1640, mold growth inhibition (MIC/MEC). How it is done: as §1

The next experiment relates to Rhizopus oryzae. The experiment is described as follows: microbe, parasite or virus in culture. More on the design: species or system Aspergillus fumigatus and other molds; modified CLSI M38-A2 broth microdilution in RPMI 1640, mold growth inhibition (MIC/MEC). The conditions noted are these: Rhizopus arrhizus; MIC/MEC. The method, then: as §1
The subject of the next experiment is Aspergillus niger. The experiment in a line: microbe, parasite or virus in culture. More on the design: species or system Aspergillus fumigatus and other molds; modified CLSI M38-A2 broth microdilution in RPMI 1640, mold growth inhibition (MIC/MEC). The conditions noted are these: Aspergillus niger; MIC/MEC. How it is done:
as §1

Experiment [4] deals with T4, Aspergillus fumigatus F16314.
T4 construct: F16314
The experiment is described as follows: microbe, parasite or virus in culture. Details: species or system Aspergillus fumigatus and other molds; modified CLSI M38-A2 broth microdilution in RPMI 1640, mold growth inhibition (MIC/MEC). The conditions noted are these: F16314, MIC/MEC, azole-resistant strain. How it is done: as §1

Experiment [5] concerns T5, Aspergillus fumigatus F7075.
T5 construct: F7075
The experiment in a line: microbe, parasite or virus in culture. Details: species or system Aspergillus fumigatus and other molds; modified CLSI M38-A2 broth microdilution in RPMI 1640, mold growth inhibition (MIC/MEC). The conditions noted are these: F7075, MIC/MEC, azole-resistant strain. The method, then:
as §1

The subject of a further experiment is Rhizomucor pusilus. The experiment is described as follows: microbe, parasite or virus in culture. More on the design: species or system Aspergillus fumigatus and other molds; modified CLSI M38-A2 broth microdilution in RPMI 1640, mold growth inhibition (MIC/MEC). The conditions noted are these: Rhizomucor; MIC/MEC. The method, then:
as §1

For another experiment, the system named is Aspergillus flavus. The experiment in a line: microbe, parasite or virus in culture. More on the design: species or system Aspergillus fumigatus and other molds; modified CLSI M38-A2 broth microdilution in RPMI 1640, mold growth inhibition (MIC/MEC). The conditions noted are these: Aspergillus flavus; MIC/MEC. How it is done:
as §1

Experiment [6] relates to T6, Aspergillus fumigatus F16216.
T6 construct: F16216
The experiment is described as follows: microbe, parasite or virus in culture. More on the design: species or system Aspergillus fumigatus and other molds; modified CLSI M38-A2 broth microdilution in RPMI 1640, mold growth inhibition (MIC/MEC). The conditions noted are these: F16216, MIC/MEC, azole-resistant strain. The method, then: as §1

Experiment [7] has as its system T7, Aspergillus fumigatus (Wild-type) (akuBKu80).
T7 construct: akuBKu80
The experiment is described as follows: microbe, parasite or virus in culture. Details: species or system Aspergillus fumigatus and other molds; modified CLSI M38-A2 broth microdilution in RPMI 1640, mold growth inhibition (MIC/MEC). The conditions noted are these: MIC/MEC. How it is done: as §1

The test system of experiment [8] is T8, Cryptococcus neoformans (H99).
T8 construct: H99
The experiment is described as follows: microbe, parasite or virus in culture. The conditions noted are these: Cryptococcus neoformans, read-out: MIC (μg/mL) against: / Cryptococcus neoformans (H99)^a. Details: CLSI M27-A3 broth microdilution in RPMI 1640 at 37 C, growth inhibition of C. neoformans (MIC). The method, then:
as §1, with “activity.” for “activity. Two FK520 analogs, JH-FK-05 and JH-FK-07, maintained high levels of broad-spectrum antifungal activity across the three species, and JH-FK-07 had the lowest MICs for both C. neoformans and C. albicans. To assess the antifungal activity against other human fungal pathogens, we selected JH-FK-05 to test against a panel of pathogenic molds and drug-resistant A. fumigatus strains (Table S3). JH-FK-05 registered MECs as low as 1 μg/mL for some of these highly recalcitrant species, such as Mucor circinelloides, Rhizopus oryzae, and pan azole-resistant A. fumigatus (strain F14946).”

For experiment [9], the target named is T9, FKBP12 (Candida albicans, UniProt C4YFI3+C4YS24+P28870).
T9 construct: gene RBP1; biotinylated (Avi-tagged) FKBP12; with CnA-CnB-calmodulin
T9 sequence (P28870 whole entry): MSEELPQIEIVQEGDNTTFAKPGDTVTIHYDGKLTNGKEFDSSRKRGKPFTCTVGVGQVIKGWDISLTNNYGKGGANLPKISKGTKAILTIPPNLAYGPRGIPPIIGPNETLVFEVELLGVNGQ
T9 sequence (C4YFI3 54-445): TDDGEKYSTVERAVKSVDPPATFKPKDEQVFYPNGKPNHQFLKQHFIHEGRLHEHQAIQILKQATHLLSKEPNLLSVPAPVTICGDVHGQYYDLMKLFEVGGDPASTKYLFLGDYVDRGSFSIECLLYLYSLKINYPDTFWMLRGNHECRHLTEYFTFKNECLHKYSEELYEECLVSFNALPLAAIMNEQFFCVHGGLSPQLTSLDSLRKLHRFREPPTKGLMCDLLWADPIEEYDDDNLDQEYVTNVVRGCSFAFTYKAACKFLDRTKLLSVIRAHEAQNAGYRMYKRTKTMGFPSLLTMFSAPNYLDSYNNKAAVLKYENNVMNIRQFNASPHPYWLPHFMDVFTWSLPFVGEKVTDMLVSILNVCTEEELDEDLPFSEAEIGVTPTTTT
T9 sequence (C4YS24 1-173): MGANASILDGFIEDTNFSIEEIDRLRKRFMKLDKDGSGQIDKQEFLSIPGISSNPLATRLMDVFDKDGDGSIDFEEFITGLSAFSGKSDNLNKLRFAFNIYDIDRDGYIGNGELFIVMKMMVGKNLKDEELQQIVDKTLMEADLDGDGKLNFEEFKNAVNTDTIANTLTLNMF
T9 sequence (P23286 whole entry partner): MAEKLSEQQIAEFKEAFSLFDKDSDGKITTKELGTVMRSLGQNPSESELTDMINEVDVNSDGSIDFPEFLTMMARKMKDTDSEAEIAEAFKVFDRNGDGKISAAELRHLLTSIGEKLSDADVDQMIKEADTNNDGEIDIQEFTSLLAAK
The experiment in a line: BLI, compound-mediated ternary complex formation, […] compound. It counts as binding.

T1 sequence (Q4WLV6 whole entry): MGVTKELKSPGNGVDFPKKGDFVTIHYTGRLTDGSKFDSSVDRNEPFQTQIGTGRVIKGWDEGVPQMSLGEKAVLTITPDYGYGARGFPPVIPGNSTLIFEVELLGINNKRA
T1 sequence (Q4WUR1 whole entry partner): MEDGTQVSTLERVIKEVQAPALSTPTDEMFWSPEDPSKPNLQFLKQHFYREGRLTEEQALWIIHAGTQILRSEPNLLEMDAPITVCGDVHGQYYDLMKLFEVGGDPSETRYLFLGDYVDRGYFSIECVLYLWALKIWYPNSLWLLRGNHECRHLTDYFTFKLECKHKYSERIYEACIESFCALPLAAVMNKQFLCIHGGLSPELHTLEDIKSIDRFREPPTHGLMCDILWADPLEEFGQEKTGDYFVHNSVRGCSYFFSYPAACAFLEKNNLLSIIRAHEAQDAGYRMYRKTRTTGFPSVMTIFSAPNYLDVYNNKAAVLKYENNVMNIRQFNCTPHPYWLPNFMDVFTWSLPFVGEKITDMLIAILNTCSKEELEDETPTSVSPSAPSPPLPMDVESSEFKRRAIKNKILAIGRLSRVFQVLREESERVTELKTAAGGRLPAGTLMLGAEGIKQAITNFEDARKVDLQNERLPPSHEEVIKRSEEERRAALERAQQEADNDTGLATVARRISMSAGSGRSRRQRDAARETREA

With `CC[C@@H]1/C=C(\C)C[C@H](C)C[C@H](OC)[C@H]2O[C@@](O)(C(=O)C(=O)N3CCCC[C@H]3C(=O)O[C@H](/C(C)=C/[C@@H]3CC[C@@H](O)[C@H](OC)C3)[C@H](C)[C@@H](O)C/C1=N/NC(C)=O)[C@H](C)C[C@@H]2OC` [JH-FK-05], the “BLI, compound-mediated ternary complex formation, 10 μM compound” value at FKBP12 [1] and at FKBP12 [9] was “target complexes form in the presence of the analogs with affinities similar to those of the parent compounds” in each case. The MIC was more than 8 µg/mL against Scedosporium apiospermum; more than 8 µg/mL with Scedosporium prolificans; 1 µg/mL (≈ 1.18 µM) against Aspergillus terreus; more than 8 µg/mL against Paecilomyces variotti; 1 µg/mL (≈ 1.18 µM) in the experiment on Mucor circinelloides; 1 µg/mL (≈ 1.18 µM) in experiment [2]. The MIC in [3] was 2 µg/mL (≈ 2.36 µM); in the experiment with Rhizopus oryzae it was 1 µg/mL (≈ 1.18 µM); against Aspergillus niger, less than 1 µg/mL; in experiment [4], 1 µg/mL (≈ 1.18 µM); in [5], 2 µg/mL (≈ 2.36 µM); against Rhizomucor pusilus, more than 8 µg/mL. For the same molecule, the MIC (against Aspergillus flavus; in experiment [6]; in experiment [7]; in [8]) was 1 µg/mL (≈ 1.18 µM) throughout.
